# Measured values taken from ChEMBL document CHEMBL1146007, “Binding of sulfonyl-containing arylalkylamines at human 5-HT6 serotonin receptors” (J Med Chem, 2006).
# Target: 5-hydroxytryptamine receptor 6 (Homo sapiens, UniProt P50406)
# Assay: Binding affinity to human 5HT6 receptor in HEK293 cells by radioligand binding assay
# Assay type: cell-based
# Chain of 5-hydroxytryptamine receptor 6 (P50406 whole entry): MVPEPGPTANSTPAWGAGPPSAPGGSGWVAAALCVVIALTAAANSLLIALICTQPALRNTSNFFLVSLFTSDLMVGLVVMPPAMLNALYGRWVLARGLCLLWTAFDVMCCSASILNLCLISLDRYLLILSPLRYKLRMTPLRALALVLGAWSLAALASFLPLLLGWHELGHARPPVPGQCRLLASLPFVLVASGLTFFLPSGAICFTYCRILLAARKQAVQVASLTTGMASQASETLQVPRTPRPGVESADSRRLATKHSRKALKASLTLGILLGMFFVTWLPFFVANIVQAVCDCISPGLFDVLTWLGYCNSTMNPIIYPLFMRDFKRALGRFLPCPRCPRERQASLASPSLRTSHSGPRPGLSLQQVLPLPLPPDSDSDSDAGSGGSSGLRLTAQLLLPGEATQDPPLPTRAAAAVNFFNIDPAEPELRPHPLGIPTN
row,Structure (SMILES),Ki [nM]
1,NCCc1ccc(NS(=O)(=O)c2ccccc2)cc1,38
2,NCCc1cccc(NS(=O)(=O)c2ccccc2)c1,21
3,O=S(=O)(Nc1cccc(N2CCNCC2)c1)c1ccccc1,62
4,NCCc1cccc(S(=O)(=O)Nc2ccccc2)c1,70
5,COc1ccc(NS(=O)(=O)c2ccccc2)cc1CCN,17
6,O=S(=O)(c1ccccc1)c1ccc(N2CCNCC2)cc1,6.9
7,NCc1cccc(NS(=O)(=O)c2ccccc2)c1,290
8,Nc1cccc(NS(=O)(=O)c2ccccc2)c1,2840
9,O=S(=O)(c1ccccc1)c1ccccc1N1CCNCC1,4000
10,CN(C)CCc1cccc(NS(=O)(=O)c2ccccc2)c1,52
11,NCCc1ccc(S(=O)(=O)c2ccccc2)cc1,37
12,CNCCc1cccc(NS(=O)(=O)c2ccccc2)c1,38
13,NCCCc1cccc(NS(=O)(=O)c2ccccc2)c1,230
14,NCCc1cccc(Sc2ccccc2)c1,115
15,CN(C)CCc1ccn(S(=O)(=O)c2ccccc2)c1,15
16,O=S(=O)(Nc1ccc(N2CCNCC2)cc1)c1ccccc1,85
17,NCCc1cccc(S(=O)(=O)c2ccccc2)c1,50
18,O=S(=O)(c1ccccc1)c1cccc(N2CCNCC2)c1,1.2
